Measurements: US20070054834A1, “Quaternary ammonium halides for treatment of infectious conditions” (NanoBio Corporation, priority 2005, published 2007)

System: S. aureus ATCC 6538
Assay: Microbicidal effect of CPC on S. aureus cultures (log reduction in count)
Assay type: cell-based, Staphylococcus aureus
Conditions: incubated 10 minutes at 37° C
Protocol: The microbicidal effect of cetyl pyridinium chloride (CPC) was tested using a strain of Staphylococcus aureus. Specifically, S. aureus ATCC 6538 cultures were placed in three different test tubes. Different concentrations (0.1%, 0.01% or 0.001%) of CPC were added to each of the test tubes. The mixture of CPC and S. aureus was incubated for 10 minutes on a tube rotator at 37° C. The results are shown below in Table 1 as the log reduction in S. aureus count.

## CCCCCCCCCCCCCCCC[n+]1ccccc1 [CPC, cetyl pyridinium chloride]
CPC concentration 0.001%
  Log reduction in S. aureus count: 3.4
CPC concentration 0.01%
  Log reduction in S. aureus count: 5.3
CPC concentration 0.1%
  Log reduction in S. aureus count: 5.3
